From article PMC11377542, “An artificial intelligence accelerated virtual screening platform for drug discovery” (Nature Communications, 2024) come the findings set out here.

Each structure is given as a SMILES string. Several values for one entry are separate records, joined by “and”; a condition that tells them apart may be missing. Identical values can stand only once. Like-named read-outs stand apart in the source and are kept apart here.

In data set [1] the target is T1, KLHDC2 (Homo sapiens, UniProt Q9Y2U9).
T1 construct: human KLHDC2 (UniProt: Q9Y2U9, amino acid 1–362); made in house; host or cells: HighFive insect cells (baculovirus, pFastBac)
T1 sequence (Q9Y2U9 1-362): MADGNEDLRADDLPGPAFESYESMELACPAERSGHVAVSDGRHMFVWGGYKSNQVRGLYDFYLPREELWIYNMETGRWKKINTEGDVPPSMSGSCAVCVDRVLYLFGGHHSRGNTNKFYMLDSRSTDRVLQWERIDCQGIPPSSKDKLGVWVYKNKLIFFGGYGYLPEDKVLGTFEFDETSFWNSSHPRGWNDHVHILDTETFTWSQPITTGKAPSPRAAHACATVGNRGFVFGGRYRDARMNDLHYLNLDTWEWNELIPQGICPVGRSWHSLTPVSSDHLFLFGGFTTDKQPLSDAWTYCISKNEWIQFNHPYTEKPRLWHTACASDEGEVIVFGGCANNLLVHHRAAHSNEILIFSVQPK
Description: Octet BioLayer Interferometry competition assay (biotinylated SelK peptide / GST-KLHDC2). Conditions: BLI competition, C29 at 0-30 µM, 50 nM GST-KLHDC2. It counts as binding. Here is the method:
Octet BioLayer interferometry competition assay monitoring the ability of C29 to interfere with the binding between the biotinylated 12 aa SelK peptide and GST-KLHDC2 was monitored using the Octet Red 96 (ForteBio, Pall Life Sciences) following the manufacturer’s procedures. The reaction was carried out in black 96 well plates maintained at 30 °C. The reaction volume was 200 μL in each well. The Octet buffer used throughout the experiment contained 20 mM Tris-HCl, 200 mM NaCl, 5 mM DTT and 0.1% BSA, pH 8.0. The Loading buffer contained the Octet buffer and biotinylated 12 aa SelK peptide, at a final concentration of 200 nM. […] The binding of the analyte GST-KLHDC2 in the presence or absence of the C29, to the optical probes was measured simultaneously using instrumental defaults for 225 sec as the probes were then incubated in Association buffer. The dissociation was measured for 600 sec while the probes were incubated in Octet buffer. […] The data were analyzed by the Octet data analysis software version 9.0.. […] The IC50 value was calculated using Prism 8 (GraphPad) from the nonlinear regression curve fit of the response values vs. log competitor concentration.
Supplementary Fig. 14 | BioLayer Interferometry competition assay of compound 29. […] The binding of the analyte GST-KLHDC2 in the presence or absence of the C29, to the loaded optical probes was measured in the association buffer. […]
For orientation: BLI is a label-free optical method that tracks binding on a fibre tip over time.

The target of data set [2] is T1, KLHDC2. The data set can be described thus: AlphaLISA competition assay (displacement of SelK C-end degron peptide from GST-KLHDC2). It is filed as binding. Particulars: IC50, competition with biotinylated 12 aa SelK degron peptide; 12-point titration, n = 3 technical replicates. An excerpt: We took the top-ranked 1000 compounds and filtered out compounds with low predicted solubility, unsatisfied hydrogen bonds in the bound conformation, and followed by similarity clustering to reduce the redundancy in ligand structures. A total of 54 molecules that passed the filtering and clustering were manually examined for favorable interactions and geometries in PyMol[34]. Finally, 37 compounds were chosen for chemical synthesis. Out of these, 29 compounds were successfully synthesized (Supplementary Fig. 13) and characterized in an AlphaLISA competition assay, in which each compound was tested for its ability to compete with a diglycine-containing SelK C-end degron peptide for binding KLHDC2. […] This single digit μM IC50 was further confirmed in a competition assay using BioLayer Interferometry (Supplementary Fig. 14).
The kelch repeat domain of human KLHDC2 (UniProt: Q9Y2U9, amino acid 1–362) was subcloned into the pFastBac vector with an N-terminally fused glutathione-S-transferase (GST), and a TEV-cleavage site. A recombinant baculovirus was produced and amplified three times in Sf9 monolayer cells to produce P4. The P4 virus was used to infect HighFive suspension insect cell cultures to produce the recombinant GST-KLHDC2 protein. The cells were harvested 2–3 days post-infection, re-suspended, and lysed in lysis buffer (20 mM Tris, pH 8.0, 200 mM NaCl, 5 mM DTT) in the presence of protease inhibitors (1 μg/ml Leupeptin, 1 μg/ml Pepstatin and 100 μM PMSF) using a microfluidizer. The GST-KLHDC2 protein was isolated from the soluble cell lysate by PierceTM Glutathione Agarose (Thermo Scientific). For AlphaLISA competition assays, the GST-tagged KLHDC2 was further purified by Q Sepharose High-Performance resin (GE Healthcare). The NaCl eluates were subjected to a Superdex-200 size exclusion chromatography column (GE Healthcare). All samples were flash-frozen in liquid nitrogen for storage prior to use. For protein crystallization, the kelch repeat domain of human KLHDC2 (amino acids 22–362) was subcloned into the pET vector with an N-terminally fused His-elongation factor Ts (TSF) and a TEV-cleavage site. The His-TSF-KLHDC2 protein was overexpressed and purified from BL21 (DE3) E. coli cells. Bacterial cells transformed with the pET-based expression plasmid were grown in LB broth to an OD600 of 0.8–1 and induced with 0.5 mM IPTG. Cells were harvested, re-suspended, and lysed in lysis buffer (20 mM Tris, pH 8.0, 200 mM NaCl, 20 mM imidazole) in the presence of protease inhibitors (1 μg mL–1 leupeptin, 1 μg mL–1 pepstatin and 100 μM phenylmethylsulfonyl fluoride) using a microfluidizer. The His-TSF-KLHDC2 protein was isolated from the soluble cell lysate by HisPurTM Ni-NTA Superflow Agarose (Thermo Fisher Scientific, Waltham, Massachusetts). After TEV cleavage of the His-TSF, KLHDC2 was further purified by Mono Q™ 5/50 GL (GE Healthcare, Chicago, Illinois). The NaCl eluates were subjected to Superdex-200 size-exclusion chromatography (GE Healthcare). Native mass spectrometry was used to confirm KLHDC2 in its apo form. The samples were concentrated by ultrafiltration to 10–22 mg mL−1. All samples were flash-frozen in liquid nitrogen for storage prior to use.
AlphaLISA assays for determining and measuring protein-protein interactions were performed using an EnSpire reader (PerkinElmer). GST-tagged KLHDC2 was attached to anti-GST AlphaLISA acceptor beads. Synthetic N-terminal biotinylated 12 aa SelK degron peptide ([Biotin]HLRGSPPPMAGG[C) (Bio-Synthesis, Inc.) was immobilized to streptavidin-coated AlphaLISA donor beads. The donor and acceptor beads were brought into proximity by the interactions between the SelK peptide and KLHDC2. Excitation of the donor beads by a laser beam of 680 nm promotes the formation of singlet oxygen. When an acceptor bead is in close proximity, the singlet oxygen reacts with thioxene derivatives in the acceptor beads and causes the emission of 615 nm photons, which are detected as the binding signal. […]

Data set [3] has as its target T2, human NaV1.5 (Homo sapiens, UniProt Q14524).
T2 construct: expressed in transfected cells
Description: Whole-cell patch-clamp electrophysiology on human NaV1.5 stably expressed in HEK-293 cells. Conditions: -80 mV holding potential (inactivated state); mean. It counts as cell-based. As for the experimental part: (§1) HEK-293 cells stably expressing human NaV1.5 and NaV1.7 were obtained from Dr. Chris Lossin (UC Davis, CA). HEK293 cells stably expressing HERG (hKv11.1) were a gift from Craig January (University of Wisconsin, Madison). Cells were cultured in complete DMEM supplemented with 10% FBS, 1% penicillin/streptomycin, and G418. All manual whole-cell patch-clamp recordings were performed at room temperature (22–24 °C) using an EPC-10 amplifier (HEKA Electronik, Lambrecht/Pfalz, Germany) on cells that were grown to 60–80% confluency, lifted with TrypLE, and plated onto poly-l-lysine–coated coverslips. External bath solution contains (in mM) 160 NaCl, 4.5 KCl, 2 CaCl2, 1 MgCl2, 10 HEPES (pH 7.4 and 305 mOsm) as. Patch pipettes were heat-pulled from soda lime glass (micro-hematocrit tubes, Kimble Chase, Rochester, NY) and had resistances of 2–3 MΩ when filled with an internal solution. […] Inhibition of currents in the resting state was recorded using a holding potential of − 120 mV. Control test currents were monitored for up to 5–10 min to ensure that the amplitude and kinetics of the response were stable. […] The percent reduction of HERG tail current amplitude by the compounds was determined. The percent of a block of tail current amplitude by the drugs was determined and data are shown as mean +/− SD (n = 3–4 per data point).
A general note: Patch clamp records ionic current or voltage across a cell membrane.

In data set [4] the target is T3, hNaV1.7 channel (Homo sapiens, UniProt Q15858).
T3 construct: expressed in transfected cells
The data set can be described thus: Whole-cell patch-clamp electrophysiology on hNaV1.7 stably expressed in HEK-293 cells. Conditions: for IC50: mean. It counts as cell-based. The text has this: We first clustered the top 100,000 ranked small molecules, then applied filters on the top 1000 cluster representative molecules. A total of 160 molecules that passed the clustering and filtering were examined manually. To ensure the chemical novelty of our selection, we specifically excluded molecules that contain the known arylsulfonamide warhead or structurally resemble antihistamines or beta-receptor blockers. Finally, ten molecules with Tanimoto similarities of less than 0.33 to the known inhibitors of NaV1.7 from the ChEMBL database[43],[44] were selected for synthesis. Of these, nine were successfully synthesized (Supplementary Fig. 16), and their activities were measured using the whole-cell patch-clamp electrophysiology assay on hNaV1.7 channel stably expressed in HEK-293 cells as described in Methods.
HEK-293 cells stably expressing human NaV1.5 and NaV1.7 were obtained from Dr. Chris Lossin (UC Davis, CA). HEK293 cells stably expressing HERG (hKv11.1) were a gift from Craig January (University of Wisconsin, Madison). Cells were cultured in complete DMEM supplemented with 10% FBS, 1% penicillin/streptomycin, and G418. All manual whole-cell patch-clamp recordings were performed at room temperature (22–24 °C) using an EPC-10 amplifier (HEKA Electronik, Lambrecht/Pfalz, Germany) on cells that were grown to 60–80% confluency, lifted with TrypLE, and plated onto poly-l-lysine–coated coverslips. External bath solution contains (in mM) 160 NaCl, 4.5 KCl, 2 CaCl2, 1 MgCl2, 10 HEPES (pH 7.4 and 305 mOsm) as. Patch pipettes were heat-pulled from soda lime glass (micro-hematocrit tubes, Kimble Chase, Rochester, NY) and had resistances of 2–3 MΩ when filled with an internal solution. Patch recordings of NaV1.5 and NaV1.7 channels were done using a cesium fluoride-based internal solution containing (in mM) 10 NaF, 110 CsF, 20 CsCl, 10 HEPES, 2 EGTA, (pH 7.4, 310 mOsm). Recordings of HERG channels were conducted using a potassium fluoride-based internal solution with added ATP (160 mM KF, 2 mM MgCl2, 10 mM EGTA, 10 mM HEPES, 4 mM NaATP, pH = 7.2 and 300–320 mOsm). Data acquisition and analysis were performed with Pulse-PulseFit (HEKA Electronik GmbH, Germany), IgorPro (WaveMetrics, Portland, OR), and Origin 9.0 software (OriginLab Corporation, Northampton, MA). To investigate specifically the inactivated state block of NaV1.7 and NaV1.5, holding potentials were set at the V1/2 of maximal inactivation (− 70 mV and − 80 mV, respectively) before voltage stepping to − 150 mV for 20 msec, and then 0 mV for 50 msec to elicit inward currents. Inhibition of currents in the resting state was recorded using a holding potential of − 120 mV. Control test currents were monitored for up to 5–10 min to ensure that the amplitude and kinetics of the response were stable. Series resistance was compensated to 80–90% and linear leak currents and capacitance artifacts were corrected using a P/4 subtraction method. The pulse interval was 0.1 Hz. For all experiments, stock solutions of the drugs were prepared fresh from 10 mM stocks in DMSO and test solutions prepared in external bath solutions were applied to individual cells into the recording bath. […] The percent reduction of HERG tail current amplitude by the compounds was determined. The percent of a block of tail current amplitude by the drugs was determined and data are shown as mean +/− SD (n = 3–4 per data point).

Data set [5] deals with T4, HERG (hKv11.1) (Homo sapiens, UniProt Q12809).
T4 construct: expressed in transfected cells
Description: Whole-cell patch-clamp electrophysiology on HEK293 cells stably expressing HERG, tail current. It is filed as cell-based. Conditions: mean. Here is the method: as §1

T3 sequence (Q15858 whole entry): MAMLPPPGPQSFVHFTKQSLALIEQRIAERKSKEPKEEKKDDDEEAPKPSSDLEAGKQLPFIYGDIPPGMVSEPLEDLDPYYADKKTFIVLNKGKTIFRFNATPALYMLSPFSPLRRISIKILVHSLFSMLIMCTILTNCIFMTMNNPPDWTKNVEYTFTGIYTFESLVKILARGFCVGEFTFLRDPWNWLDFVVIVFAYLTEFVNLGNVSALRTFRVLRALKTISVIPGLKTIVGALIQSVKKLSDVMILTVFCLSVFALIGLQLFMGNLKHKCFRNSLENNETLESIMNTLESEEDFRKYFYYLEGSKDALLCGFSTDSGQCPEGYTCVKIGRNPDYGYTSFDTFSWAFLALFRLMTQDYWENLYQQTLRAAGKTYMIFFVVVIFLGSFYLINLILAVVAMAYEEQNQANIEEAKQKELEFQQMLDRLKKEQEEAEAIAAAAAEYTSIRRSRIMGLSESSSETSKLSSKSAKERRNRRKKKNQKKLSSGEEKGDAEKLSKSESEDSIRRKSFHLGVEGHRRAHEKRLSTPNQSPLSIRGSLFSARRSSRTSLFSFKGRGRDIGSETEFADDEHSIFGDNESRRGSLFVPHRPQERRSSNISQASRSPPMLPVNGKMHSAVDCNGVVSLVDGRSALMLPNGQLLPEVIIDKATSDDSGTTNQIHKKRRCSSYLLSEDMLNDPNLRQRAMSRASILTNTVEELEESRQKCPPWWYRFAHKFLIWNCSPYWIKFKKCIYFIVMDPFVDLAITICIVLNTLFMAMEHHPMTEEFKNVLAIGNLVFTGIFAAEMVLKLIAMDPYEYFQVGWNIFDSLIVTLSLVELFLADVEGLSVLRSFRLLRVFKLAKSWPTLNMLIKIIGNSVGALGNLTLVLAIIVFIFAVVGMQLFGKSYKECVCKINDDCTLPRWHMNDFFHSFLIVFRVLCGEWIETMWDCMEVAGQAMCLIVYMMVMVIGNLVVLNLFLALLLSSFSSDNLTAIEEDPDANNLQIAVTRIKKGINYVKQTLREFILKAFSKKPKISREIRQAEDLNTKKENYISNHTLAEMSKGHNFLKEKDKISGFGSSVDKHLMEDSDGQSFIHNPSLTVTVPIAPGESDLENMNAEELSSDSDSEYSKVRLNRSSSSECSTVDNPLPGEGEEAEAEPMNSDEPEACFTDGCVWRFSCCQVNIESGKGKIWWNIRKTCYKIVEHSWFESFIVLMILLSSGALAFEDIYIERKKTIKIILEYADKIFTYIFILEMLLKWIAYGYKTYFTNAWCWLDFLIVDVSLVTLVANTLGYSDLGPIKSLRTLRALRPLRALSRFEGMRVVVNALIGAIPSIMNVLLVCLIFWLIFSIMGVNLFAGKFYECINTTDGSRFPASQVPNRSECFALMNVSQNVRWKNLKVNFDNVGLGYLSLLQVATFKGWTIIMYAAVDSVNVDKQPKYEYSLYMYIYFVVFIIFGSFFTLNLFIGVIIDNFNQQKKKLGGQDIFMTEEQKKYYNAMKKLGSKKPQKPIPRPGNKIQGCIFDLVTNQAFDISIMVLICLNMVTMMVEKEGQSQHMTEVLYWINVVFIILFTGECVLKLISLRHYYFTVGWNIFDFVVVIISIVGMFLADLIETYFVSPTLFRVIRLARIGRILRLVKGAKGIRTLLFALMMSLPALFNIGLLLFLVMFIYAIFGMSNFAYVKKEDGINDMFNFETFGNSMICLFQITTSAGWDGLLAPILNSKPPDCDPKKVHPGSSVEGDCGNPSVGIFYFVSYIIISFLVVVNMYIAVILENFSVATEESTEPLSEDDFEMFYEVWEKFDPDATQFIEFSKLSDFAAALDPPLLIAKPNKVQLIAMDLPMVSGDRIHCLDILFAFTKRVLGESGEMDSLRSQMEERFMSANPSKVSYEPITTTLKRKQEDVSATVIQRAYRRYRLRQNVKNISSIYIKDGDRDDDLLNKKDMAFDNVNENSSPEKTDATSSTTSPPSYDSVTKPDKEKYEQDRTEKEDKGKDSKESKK
T2 sequence (Q14524 whole entry): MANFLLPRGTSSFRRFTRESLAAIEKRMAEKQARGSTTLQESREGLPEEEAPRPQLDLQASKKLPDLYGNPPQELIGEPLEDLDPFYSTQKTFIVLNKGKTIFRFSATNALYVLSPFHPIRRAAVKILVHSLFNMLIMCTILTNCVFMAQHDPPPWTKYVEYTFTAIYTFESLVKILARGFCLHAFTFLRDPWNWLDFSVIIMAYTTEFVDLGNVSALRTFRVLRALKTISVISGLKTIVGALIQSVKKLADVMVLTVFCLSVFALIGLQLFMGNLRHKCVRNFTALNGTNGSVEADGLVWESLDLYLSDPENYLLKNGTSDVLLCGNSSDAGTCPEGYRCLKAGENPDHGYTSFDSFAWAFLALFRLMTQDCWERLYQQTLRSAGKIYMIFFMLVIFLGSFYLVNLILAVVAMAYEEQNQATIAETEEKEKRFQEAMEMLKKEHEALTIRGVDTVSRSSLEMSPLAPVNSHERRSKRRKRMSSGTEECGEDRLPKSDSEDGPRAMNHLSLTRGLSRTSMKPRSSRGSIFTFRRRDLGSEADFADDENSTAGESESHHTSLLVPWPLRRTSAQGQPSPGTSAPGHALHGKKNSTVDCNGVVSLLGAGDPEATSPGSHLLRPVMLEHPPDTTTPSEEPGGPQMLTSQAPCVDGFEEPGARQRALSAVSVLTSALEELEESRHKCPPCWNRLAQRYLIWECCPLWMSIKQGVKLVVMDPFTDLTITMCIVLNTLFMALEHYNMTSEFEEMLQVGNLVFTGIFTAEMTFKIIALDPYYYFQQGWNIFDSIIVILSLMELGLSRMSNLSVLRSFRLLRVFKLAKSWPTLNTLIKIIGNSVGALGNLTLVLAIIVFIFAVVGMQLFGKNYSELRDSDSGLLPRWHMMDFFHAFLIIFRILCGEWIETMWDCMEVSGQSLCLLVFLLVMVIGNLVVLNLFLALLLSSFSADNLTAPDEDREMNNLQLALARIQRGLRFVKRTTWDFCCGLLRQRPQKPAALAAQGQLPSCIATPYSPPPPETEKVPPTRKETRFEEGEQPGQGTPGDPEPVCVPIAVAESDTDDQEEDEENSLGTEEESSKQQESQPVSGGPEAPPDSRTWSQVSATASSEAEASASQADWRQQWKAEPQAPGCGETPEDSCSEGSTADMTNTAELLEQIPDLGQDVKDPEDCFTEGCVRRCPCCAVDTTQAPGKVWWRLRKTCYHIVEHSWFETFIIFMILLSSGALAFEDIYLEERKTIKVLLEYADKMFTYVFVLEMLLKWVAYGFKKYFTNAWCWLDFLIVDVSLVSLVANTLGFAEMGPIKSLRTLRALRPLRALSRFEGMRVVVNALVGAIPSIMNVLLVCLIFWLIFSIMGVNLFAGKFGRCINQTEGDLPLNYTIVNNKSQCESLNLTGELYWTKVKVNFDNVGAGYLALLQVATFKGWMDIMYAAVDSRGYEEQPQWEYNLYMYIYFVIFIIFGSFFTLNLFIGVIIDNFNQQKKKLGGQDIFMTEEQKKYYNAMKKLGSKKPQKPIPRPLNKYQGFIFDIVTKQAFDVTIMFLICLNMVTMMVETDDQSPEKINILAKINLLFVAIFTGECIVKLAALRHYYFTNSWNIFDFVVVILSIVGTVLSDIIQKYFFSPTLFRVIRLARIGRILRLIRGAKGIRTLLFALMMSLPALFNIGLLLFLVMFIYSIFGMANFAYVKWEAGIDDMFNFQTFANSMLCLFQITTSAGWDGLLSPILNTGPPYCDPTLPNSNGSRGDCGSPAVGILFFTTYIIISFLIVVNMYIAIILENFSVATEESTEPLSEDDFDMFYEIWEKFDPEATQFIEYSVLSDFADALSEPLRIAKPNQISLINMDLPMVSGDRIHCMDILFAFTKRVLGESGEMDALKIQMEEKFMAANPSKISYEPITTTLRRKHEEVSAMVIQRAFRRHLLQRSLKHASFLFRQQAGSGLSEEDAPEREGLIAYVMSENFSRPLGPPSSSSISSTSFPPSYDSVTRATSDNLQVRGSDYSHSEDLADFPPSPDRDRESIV
T4 sequence (Q12809 whole entry): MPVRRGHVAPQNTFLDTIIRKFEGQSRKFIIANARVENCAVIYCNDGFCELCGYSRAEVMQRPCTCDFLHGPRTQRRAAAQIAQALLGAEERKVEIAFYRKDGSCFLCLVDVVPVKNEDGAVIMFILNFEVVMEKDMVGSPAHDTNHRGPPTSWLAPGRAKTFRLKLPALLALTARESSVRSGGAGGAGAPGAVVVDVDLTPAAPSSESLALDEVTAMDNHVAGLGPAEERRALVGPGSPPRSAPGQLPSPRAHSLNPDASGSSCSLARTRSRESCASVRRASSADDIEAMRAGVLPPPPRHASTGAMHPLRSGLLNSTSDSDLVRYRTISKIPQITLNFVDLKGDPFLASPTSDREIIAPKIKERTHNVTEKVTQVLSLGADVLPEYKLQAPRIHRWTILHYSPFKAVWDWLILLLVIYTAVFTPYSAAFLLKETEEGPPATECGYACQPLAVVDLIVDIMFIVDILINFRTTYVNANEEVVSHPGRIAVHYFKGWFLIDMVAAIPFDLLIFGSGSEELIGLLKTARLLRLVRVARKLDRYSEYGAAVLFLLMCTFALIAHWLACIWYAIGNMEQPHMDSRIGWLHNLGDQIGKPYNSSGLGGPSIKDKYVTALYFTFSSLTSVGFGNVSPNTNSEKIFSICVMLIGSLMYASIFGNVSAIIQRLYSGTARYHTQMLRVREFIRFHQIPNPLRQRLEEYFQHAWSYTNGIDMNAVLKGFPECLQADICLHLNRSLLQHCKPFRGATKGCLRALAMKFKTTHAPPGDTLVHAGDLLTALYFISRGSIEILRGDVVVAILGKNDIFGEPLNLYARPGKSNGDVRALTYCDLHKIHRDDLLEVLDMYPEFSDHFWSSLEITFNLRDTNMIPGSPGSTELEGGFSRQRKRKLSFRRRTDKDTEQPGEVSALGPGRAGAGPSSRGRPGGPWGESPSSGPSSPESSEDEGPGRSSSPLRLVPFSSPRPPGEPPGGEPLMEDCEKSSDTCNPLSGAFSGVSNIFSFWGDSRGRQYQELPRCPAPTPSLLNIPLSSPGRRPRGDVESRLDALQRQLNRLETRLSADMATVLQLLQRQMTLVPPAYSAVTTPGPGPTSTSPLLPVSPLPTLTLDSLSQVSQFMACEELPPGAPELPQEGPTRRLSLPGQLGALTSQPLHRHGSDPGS

Usually IC50 stands for the midpoint of a concentration-inhibition curve. `CC(C)(C)c1ccc(CSCC(=O)NCc2cn(CC(=O)O)nn2)cc1` [Compound C29]: the IC50 entry was “single digit” in data set [1]; ~3 µM and 2.9 µM in data set [2].

For the compound `Cc1cc(C(C)(C)C)ccc1OCC(O)CNCc1cc(C)c(C)s1` (centres unmarked) [Compound Z8739902234, CC=1C=C(CNCC(O)COC=2C=CC(=CC2C)C(C)(C)C)SC1C], the IC50 in data set [3] was 5.14 µM; in data set [4] (NaV1.7 inactivated state, -70 mV holding potential, read-out: inactivated-state IC50), 1.33 µM and 1.3 µM; in data set [4] (NaV1.7 resting state, -120 mV holding potential, read-out: resting state IC50) it was 13.1 µM; in data set [5], 6.27 µM. Moreover, the “selectivity for hNaV1.7 versus hNaV1.5 and hERG channels” value in data set [4] (in words) was “moderate selectivity”. In addition, in data set [4] (inactivated versus resting state, in words), the “state dependence of NaV1.7 inhibition” value is “state dependent”.
